# Square brackets hold non-standard residues; d marks the D form. Peptide text beside a SMILES is read from it. * marks the point of attachment. Nle = CCCC[C@H](N)C(=O)O; Cbz = O=C(OCc1ccccc1)*
# Legend:
# [1] = system: MDA-MB-231 breast cancer cells; assay: z-Leu-Leu-Nle-CHO plus Paclitaxel, growth inhibition of MDA-MB-231 cells; format: cell-based, human; conditions: 0-0.8 μM with Paclitaxel, 48 h
# Method: Three different types of breast cancer cells were contacted with varying concentrations of z-Leu-Leu-Nle-CHO (0-0.8 μM) and the mitotic poison Paclitaxel (0.01-1 μM). MDA-MB231 cells were obtained from ATCC (Rockville, Md.). T47D:C42 and T47D:A18 cells were a kind gift of Debra Tonetti (University of Illinois-Chicago). MDA-MB231 cells were cultured in DMEM medium with 10% FBS. T47D:C42 and T47D:A18 cells were propagated in RPMI 1640 with 10% FBS, 100 μM non-essential amino acid and 6 ng/ml insulin. Gamma-secretase inhibitor z-Leu-Leu-Nle-CHO (Calbiochem 565750) was dissolved in DMSO, aliquoted and stored at −80° C. Paclitaxel (Sigma, St. Louis Mo.) was dissolved in DMSO, aliquoted and stored at −80° C.
# To determine whether z-Leu-Leu-Nle-CHO treatment potentiates the effect of Paclitaxel on human breast cancer cells, MDA-MB231, T47D:C42 and T47D:A18 cells were treated for 48 h with 0-0.8 μM z-Leu-Leu-Nle-CHO and various concentrations of Paclitaxel (0.008-1 μM) Following the z-Leu-Leu-Nle-CHO and Paclitaxel treatment, the cells were tested for growth inhibition as described above in Example 13.
# [2] = system: Human Mammary Epithelial Cells (HMEC); assay: Proliferation of normal breast cells (HMEC) after siRNA; format: cell-based; conditions: siRNA transfection
# Method: An invasive, estrogen-independent breast cancer cell line that spontaneously expresses high levels of Notch-1 and -4, MDA-MB231, and normal human breast cells were used to investigate whether inhibition of Notch activation or expression affects the biological behavior of breast cancer cells. […] Sequence specificity was determined by BLAST searches which determined the uniqueness of the sequences. […] Transfected cells were identified by Streptavidin-horseradish peroxidase staining (Vectastain) and counted. […]
# Cytotoxicity and growth of transfected cells were estimated by a standard assay used for cancer drug screening, through the total amount of TCA-precipitated cell proteins after drug treatment (Likhitwitayawuid, K et al., 1993, J Nat Prod 56:30-38): 200 μl of cell suspension (10^5 cells/ml) were added to each well in a 96-well plate. […] Plates were shaken for 5-10 minutes and OD at 490 nm (OD490) was recorded via ELISA reader. […] After removal of the non-invading cells from the interior of the inserts, stained invading cells were lysed in 10% acetic acid and OD595 was determined.
Compound,effect on Paclitaxel cell growth inhibition [1],proliferation [2]
"CCCC[C@@H](C=O)NC(=O)[C@H](CC(C)C)NC(=O)[C@H](CC(C)C)NC(=O)OCc1ccccc1 [z-Leu-Leu-Nle-CHO, N-benzyloxycarbonyl-leucyl-leucyl-norleucinal] (Cbz-Leu-Leu-[Nle]-aldehyde)",moderately potentiated the effects of Paclitaxel on cell growth inhibition,–
5′-AAGTGTCTGAGGCCAGCAAGA-3′ [Notch-1 siRNA],–,inhibits proliferation of normal breast cells
